# Earlier results, collected in paper PMC11064828 (Journal of Nuclear Medicine, 2024).
# Legend:
# [1] = test system: CAIX; conditions: 2 clinical trials of metastatic ccRCC
# Excerpt: (§1) As a direct transcriptional target of hypoxia-inducible factor 1α, CAIX is overexpressed in several hard-to-treat tumors, including ccRCC, CRC, breast cancer, and PDAC ([2],[9]–[11]), making it a promising therapeutic target. However, to date, the transition of CAIX-targeting therapies to clinical settings has been poor ([7],[13]).
# [2] = test system: CAIX; conditions: phase 1 study of advanced solid tumors
# Excerpt: as §1, with “([7],[13]). Several small-molecule inhibitors of CAs, including CAIX, have been developed ([7],[13]).” for “([7],[13]).”
Compound,dose-limiting toxicity [1],objective responses [2],tolerability [2]
G250 to the β-emitter [^177Lu]Lu: anti-CAIX monoclonal antibody G250 conjugated to the β-emitter [^177Lu]Lu,dose-limiting myelotoxicity,–,–
NS(=O)(=O)c1ccc(NC(=O)Nc2ccc(F)cc2)cc1 [SLC-0111],–,no objective responses,well tolerated
